Results on 22 molecules are retold here after patent publication US7294330B2, “β-glucuronidase inhibitors for use in deodorants and antiperspirants” (priority 2001, dated 2007).

Where a name gives a salt, the structure may show the parent alone. Read-outs that look alike come from different tables or passages of the source.

In the assay the target is T1, β-glucuronidase (Sigma) (EC 3.2.1.31) from E. coli (Escherichia coli, UniProt P05804).
T1 construct: purchased Sigma G-7396
Nature of the assay: biochemical. The settings on record: for remaining activity at 0.001 %: test concentration 0.001 %. The method, then:
Investigation of the inhibitory action of the β-glucuronidase inhibitors (in vitro)
Since the skin-relevant β-glucuronidase was not available, a commercially available β-glucuronidase (Sigma) (EC 3.2.1.31) from E. coli served as the model enzyme for testing the inhibitory action of the inhibitors used according to the invention. The tests were carried out with the β-glucuronidase enzyme assay product no. G-7396 from Sigma in accordance with the instructions in the Sigma Quality Control Test Procedure datasheet.
For the evaluation, the phenolphthalein formed from the substrate phenolphthalein glucuronide by β-glucuronidase was determined spectrophotometrically (λ=540 nm).
The reaction solutions of 300 μl, which were temperature-controlled at a reaction temperature of 37° C., comprised 30 mM potassium phosphate buffer with 0.04% of albumin (pH 6.8), 0.5 mM phenolphthalein glucuronide (substrate) and a starting concentration of 40 U/ml (=12 U) of β-glucuronidase. The unit U of the enzyme activity was defined such that 1 U of β-glucuronidase hydrolyses 1.0 μmol of phenolphthalein glucuronide per minute at pH 6.8 and 37° C.
The reaction was started by addition of the enzyme and incubation was carried out for 30 min at 37° C. The reaction was then stopped with 3.5 times the volume of a 200 mM glycine solution of pH 10.4. In the photometric end point determination, the amount of phenolphthalein liberated was determined at the wavelength of λ=540 nm and at 37° C.
In batches with inhibitor, 0.2 ml of the appropriately concentrated reagents and 0.1 ml of the inhibitor, dissolved in water, were mixed. In each case a concentration series of the inhibitor was tested here. The absorption (A) here is a measure of the activity of the enzyme (ΔA). The activity of the enzyme in the absence of an inhibitor (ΔA1) was set at 100% as the reference. Under analogous conditions, the activities were determined in the presence of an inhibitor (ΔA2). The inhibitory action of the inhibitor was shown as the residual activity of the enzyme activity, calculated in accordance with the equation 100%−(ΔA2)/(ΔA1)%.

The mark [1] stands for this setting: 0.5 h, concentration in the test 0.01 % (head of grid column 4, first sub-table), 30 min, 37° C., pH 6.8, read-out: Residual activity.
Setting [2] is: 0.5 h, test concentration 0.01 %, 30 min, 37° C., pH 6.8, read-out: Residual activity.
[3] abbreviates: 0.5 h, test concentration 0.10 %, 30 min, 37° C., pH 6.8, read-out: Residual activity.
Where [4] appears, read: 0.5 h, test concentration 1.00 %, 30 min, 37° C., pH 6.8, read-out: Residual activity.
Setting [5] is: test concentration 0.10 %, 30 min, 37° C., pH 6.8.
Where [6] appears, read: test concentration 0.50 %, 30 min, 37° C., pH 6.8.
Where [7] appears, read: 0.5 h, pH 6.8, read-out: Residual activity.
[8] abbreviates: 0.5 h, 30 min, 37° C., pH 6.8, read-out: Residual activity.
Where [9] appears, read: test concentration 0.01 %, 30 min, 37° C., pH 6.8.
The mark [10] stands for this setting: test concentration 1.00 %, 30 min, 37° C., pH 6.8.
[11] abbreviates: test concentration 0.08 %, 30 min, 37° C., pH 6.8.
Setting [12] is: test concentration 2.00 %, 30 min, 37° C., pH 6.8.

T1 sequence (P05804 whole entry): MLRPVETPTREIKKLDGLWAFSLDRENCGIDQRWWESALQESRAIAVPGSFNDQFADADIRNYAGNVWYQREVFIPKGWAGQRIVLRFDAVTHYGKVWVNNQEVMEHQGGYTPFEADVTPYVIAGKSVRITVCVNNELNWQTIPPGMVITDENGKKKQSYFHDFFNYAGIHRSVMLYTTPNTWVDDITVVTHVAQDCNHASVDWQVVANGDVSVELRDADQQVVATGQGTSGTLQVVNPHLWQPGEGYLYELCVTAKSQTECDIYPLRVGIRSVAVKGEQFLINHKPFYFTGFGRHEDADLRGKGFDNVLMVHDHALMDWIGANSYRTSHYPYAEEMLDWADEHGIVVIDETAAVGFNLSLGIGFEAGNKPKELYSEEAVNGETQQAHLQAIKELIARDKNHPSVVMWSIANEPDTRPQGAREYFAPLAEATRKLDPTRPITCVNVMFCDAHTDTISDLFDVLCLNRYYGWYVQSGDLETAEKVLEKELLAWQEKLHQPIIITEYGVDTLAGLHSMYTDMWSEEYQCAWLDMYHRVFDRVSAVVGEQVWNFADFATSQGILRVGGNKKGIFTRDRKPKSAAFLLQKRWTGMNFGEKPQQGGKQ

In the case of `C=C(C)C1CCC(C)CC1O` (stereo not shown) [Coolact P, 5-methyl-2-(1-methylvinyl)cyclohexan-1-ol], for the setting “0.5 h, concentration in the test 0.0005 % (head of grid column 3, first sub-table), 30 min, 37° C., pH 6.8, read-out: Residual activity”, the remaining activity at 0.0005 % was determined as 184%. Moreover, the remaining activity at 0.01 % under setting [1] worked out at 38%.
On to `O.O.O.O.O.[Cl][Cu][Cl]` [CuCl2 × 5H2O, CuCl2·5 H2O], for which the Residual activity is, setting by setting: (test concentration 0.000005 %, 30 min, 37° C., pH 6.8) 105%; (test concentration 0.00005 %, 30 min, 37° C., pH 6.8) 39%; (test concentration 0.00025 %, 30 min, 37° C., pH 6.8) 7%.
On to `CC(O)(P(=O)(O)O)P(=O)(O)O` [Dequest 2016D, 1-Hydroxyethane-1,1-diphosphonic acid tetrasodium salt], for which the remaining activity at 8e-05 % (0.5 h, concentration in the test 0.00008 % (head of grid column 1, first sub-table), 30 min, 37° C., pH 6.8, read-out: Residual activity) was 99%. For the setting “0.5 h, concentration in the test 0.0008 % (head of grid column 2, first sub-table), 30 min, 37° C., pH 6.8, read-out: Residual activity”, the remaining activity at 0.0008 % stood at 95%. Under setting [1], the remaining activity at 0.01 % came to 52%.
For the molecule `O=C(O)C(O)c1ccc(O)cc1` (stereo not shown) [Dermosoft HMA, p-Hydroxymandelic acid sodium salt], the remaining activity at 0.01 % under setting [2] came out at 110%. Besides, the remaining activity at 0.1 % under setting [3] is 99%. Besides, under setting [4], the remaining activity at 1 % was 56%.
For `C=CCc1ccc(O[C@@H]2O[C@H](CO)[C@@H](O)[C@H](O)[C@H]2O)c(OC)c1` [Eugenyl Glucoside, 2-methoxy-4-(2-propenyl)phenyl β-D-glucoside], the Residual activity came out at 53% under setting [5] and 12% under setting [6].
Take `NCC(=O)O` [Glycine, glycine]: under setting [7], the remaining activity at 0.01 % is 95%, the remaining activity at 0.1 % amounted to 91%, the remaining activity at 0.5 % amounted to 70% and the remaining activity at 1 % came out at 52%. In addition, under setting [7], the remaining activity at 2 % was determined as 32%.
Consider `CC(C)c1cccc(=O)c(O)c1` [Hinokitiol (DMSO), 2-hydroxy-4-isopropyl-2,4,6-cycloheptatrien-1-one], for which the remaining activity at 0.001 % under setting [8] came to 112%. Also, the remaining activity at 0.01 % under setting [2] was determined as 156%. For the same molecule, the remaining activity at 0.1 % under setting [3] worked out at 30%. Also, the remaining activity at 1 % under setting [4] was 2%.
As for `O=C([O-])C(O)C(O)C(O)C(O)C(O)CO.O=C([O-])C(O)C(O)C(O)C(O)C(O)CO.[Mg+2]` (stereo not shown) [Magnesium glucoheptonate, magnesium glucoheptonate], the Residual activity was 55% under setting [9] and 50% under setting [5].
With `C[C@@H]1O[C@@H](O[C@H]2[C@H](Oc3cc(O)c4c(c3)O[C@H](c3ccc(O)cc3)CC4=O)O[C@H](CO)[C@@H](O)[C@@H]2O)[C@H](O)[C@H](O)[C@H]1O` [Naringin, naringenin 7-rhamnoglucoside], the remaining activity at 0.001 % under setting [8] worked out at 103%. Moreover, the remaining activity at 0.01 % under setting [2] was 94%. The remaining activity at 0.1 % under setting [3] was found to be 47%.
Take `OCCc1ccccc1` [Phenylethyl alcohol, 2-phenylethyl alcohol]: the remaining activity at 0.01 % under setting [2] is 121%. Besides, the remaining activity at 0.1 % under setting [3] was 227%. Also, the remaining activity at 1 % under setting [4] is 49%.
With `O=P(O)(O)O[C@H]1[C@H](OP(=O)(O)O)[C@@H](OP(=O)(O)O)[C@H](OP(=O)(O)O)[C@@H](OP(=O)(O)O)[C@H]1OP(=O)(O)O` [Phytic acid, myo-inositol-hexaphosphoric acid], the remaining activity at 0.01 % under setting [2] is 90%. In addition, the remaining activity at 0.05 % (0.5 h, test concentration 0.05 %, 30 min, 37° C., pH 6.8, read-out: Residual activity) was 86%. Besides, the remaining activity at 0.1 % under setting [3] was 71%. The remaining activity at 0.38 % (0.5 h, test concentration 0.38 %, 30 min, 37° C., pH 6.8, read-out: Residual activity) was found to be 68%. Further, under setting [4], the remaining activity at 1 % was 16%.
Take `CC(O)C(=O)[O-].[K+]` (stereo not shown) [Purasal P Hipure 60, Potassium lactate]: the Residual activity under setting [9] is on record as 96%, the Residual activity under setting [5] was found to be 88% and the Residual activity under setting [10] worked out at 52%.
On to `CC(=O)CCc1ccc(O[C@@H]2O[C@H](CO)[C@@H](O)[C@H](O)[C@H]2O)cc1` [Raspberry ketone glucoside, 4-(γ-ketobutyl)phenyl β-D-glucoside], for which the Residual activity reads like this: under setting [6], 125%; under setting [10], 49%.
Consider `O=C(/C=C/c1ccc(O)c(O)c1)O[C@H](Cc1ccc(O)c(O)c1)C(=O)O` [Rosemary acid, rosemary acid], for which the Residual activity is, setting by setting: (test concentration 0.0008 %, 30 min, 37° C., pH 6.8) 48%; (test concentration 0.008 %, 30 min, 37° C., pH 6.8) 15%; under setting [11], 19%; (test concentration 8 · 10^−5 %, 30 min, 37° C., pH 6.8) 86%.
In the case of `O=C([O-])CN(CC(=O)[O-])CC(=O)[O-].[Na+].[Na+].[Na+]` [Trilon A, Nitrilotriacetic acid 3 Na, reference compound], the Residual activity by setting is: under setting [9], 100%; under setting [5], 90%; under setting [6], 71%; under setting [10], 59%; under setting [12], 52%.
The matching figures for `O=C([O-])CN(CCN(CC(=O)[O-])CC(=O)[O-])CC(=O)[O-].[Na+].[Na+].[Na+].[Na+]` [Trilon B, EDTA-4 Na, reference compound]: 108%, 86%, 57%, 51% and 43%.
Regarding `CC(C(=O)[O-])N(CC(=O)[O-])CC(=O)[O-].[Na+].[Na+].[Na+]` (stereo not shown) [Trilon M, Methylglycinediacetic acid trisodium salt], the Residual activity was 99% under setting [9], 91% under setting [5] and 55% under setting [10].
Consider `O=C([O-])CC(O)(CC(=O)[O-])C(=O)[O-].[K+].[K+].[K+]` [Tripotassium citrate, tripotassium citrate], for which the Residual activity reads like this: under setting [9], 97%; under setting [5], 86%; under setting [10], 47%.
Regarding `CC(O)C(=O)[O-].CC(O)C(=O)[O-].[Zn+2]` (stereo not shown) [Zinc lactate, zinc lactate], the Residual activity worked out at 77% (test concentration 0.005 %, 30 min, 37° C., pH 6.8); 55% (test concentration 0.05 %, 30 min, 37° C., pH 6.8); 30% under setting [11]; 3% under setting [6].
On to `O=C1CC[C@@H](C(=O)[O-])N1.O=C1CC[C@@H](C(=O)[O-])N1.[Zn+2]` [Zincidone], for which the Residual activity by setting is: under setting [9], 79%; under setting [5], 8%; under setting [10], 3%.
On to Copper gluconate [Givobio GCU], for which the Residual activity amounted to 81% under setting [9] and 50% under setting [5].
For the molecule zinc gluconate, the Residual activity runs as follows: under setting [9], 88%; under setting [5], 54%; (test concentration 0.25 %, 30 min, 37° C., pH 6.8) 3%; under setting [10], 1%.
